# Assay results taken from BindingDB's records for patent US20250270215 (Chiesi Farmaceutici, 2025).
# Biological target: T1, TGF-beta receptor type-1 (Homo sapiens, UniProt P36897)
# T1 sequence (P36897 whole entry): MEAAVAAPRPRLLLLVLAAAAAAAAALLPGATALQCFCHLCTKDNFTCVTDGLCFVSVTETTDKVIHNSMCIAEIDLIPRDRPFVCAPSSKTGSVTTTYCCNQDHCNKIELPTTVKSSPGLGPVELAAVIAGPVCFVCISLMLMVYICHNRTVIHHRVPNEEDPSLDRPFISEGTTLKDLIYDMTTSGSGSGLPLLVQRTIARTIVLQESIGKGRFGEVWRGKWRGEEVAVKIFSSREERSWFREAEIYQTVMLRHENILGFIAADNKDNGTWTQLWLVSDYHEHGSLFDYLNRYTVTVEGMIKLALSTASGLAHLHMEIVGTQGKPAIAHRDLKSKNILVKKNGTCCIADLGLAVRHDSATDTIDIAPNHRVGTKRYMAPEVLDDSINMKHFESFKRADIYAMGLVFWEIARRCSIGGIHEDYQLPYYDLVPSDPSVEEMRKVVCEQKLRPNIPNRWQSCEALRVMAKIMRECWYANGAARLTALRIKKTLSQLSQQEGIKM
# Assay: In Vitro Assay
# Protocol: Briefly, the kinase reaction was performed by incubating 2.6 nM of the purified, commercially available human ALK5 (recombinant TGF β1 N-term GST-tagged, 80-end), a final concentration of TGFβ1 peptide 94.5 μM (Promega, T36-58) and ultra-pure ATP (Promega V915B). The ATP concentration was set at the Km value (concentration of substrate which permits the enzyme to achieve half maximal velocity (Vmax)) of ALK5 (5 μM). All reactions/incubations were performed at 25° C. Compound and ALK5 kinase were mixed and incubated for 15 mins. Reactions were initiated by addition of ATP at a final concentration in the assay of 0.83 μM. After an incubation of 150 min, the reaction was stopped, and ADP production detected with ADP-Glo kit according to manufacturer's indications. The assay was performed in 384-well format and was validated using a selection of reference compounds that was tested in 11 point concentration-response curve.
row,SMILES,IC50 [nM]
1,"Fc1ccc(Cl)cc1-c1nc2n(c1-c1ccc3ncnn3c1)CCN2 [US20250270215, Example 2]",< 1
2,"Cc1csc(-c2nc3n(c2-c2ccc4ncnn4c2)CCN3)n1 [US20250270215, Example 3]",< 1
3,"Cc1cccc(-c2nc3n(c2-c2cc4cnccc4s2)CC(C(=O)O)N3)n1 (stereo not drawn) [US20250270215, Example 4]",< 1
4,"Clc1cccc(-c2nc3n(c2-c2ccc4ncnn4c2)CCN3)n1 [US20250270215, Example 12]",< 1
5,"Clc1cccc(-c2nc3n(c2-c2cc4cnccc4s2)CCN3)n1 [US20250270215, Example 13]",< 1
6,"Fc1ccc(Cl)cc1-c1nc2n(c1-c1cc3cnccc3s1)CCN2 [US20250270215, Example 14]",< 1
7,"Cc1cccc(-c2nc3n(c2-c2ccc4nsnc4c2)CCN3)n1 [US20250270215, Example 17]",< 1
8,"Cc1cccc(-c2nc3n(c2-c2ccc4nonc4c2)CCN3)n1 [US20250270215, Example 18]",< 1
